Legend:
[1] = molecular target: T1, Inhibitor of nuclear factor kappa-B kinase subunit epsilon (Homo sapiens) (UniProt Q14164); assay: Inhibition of human IKKe/IKBKE using casein as substrate at 1 uM in presence of 32P-ATP by Hotspot assay relative to control; values are per cent of control
T1 sequence (whole entry): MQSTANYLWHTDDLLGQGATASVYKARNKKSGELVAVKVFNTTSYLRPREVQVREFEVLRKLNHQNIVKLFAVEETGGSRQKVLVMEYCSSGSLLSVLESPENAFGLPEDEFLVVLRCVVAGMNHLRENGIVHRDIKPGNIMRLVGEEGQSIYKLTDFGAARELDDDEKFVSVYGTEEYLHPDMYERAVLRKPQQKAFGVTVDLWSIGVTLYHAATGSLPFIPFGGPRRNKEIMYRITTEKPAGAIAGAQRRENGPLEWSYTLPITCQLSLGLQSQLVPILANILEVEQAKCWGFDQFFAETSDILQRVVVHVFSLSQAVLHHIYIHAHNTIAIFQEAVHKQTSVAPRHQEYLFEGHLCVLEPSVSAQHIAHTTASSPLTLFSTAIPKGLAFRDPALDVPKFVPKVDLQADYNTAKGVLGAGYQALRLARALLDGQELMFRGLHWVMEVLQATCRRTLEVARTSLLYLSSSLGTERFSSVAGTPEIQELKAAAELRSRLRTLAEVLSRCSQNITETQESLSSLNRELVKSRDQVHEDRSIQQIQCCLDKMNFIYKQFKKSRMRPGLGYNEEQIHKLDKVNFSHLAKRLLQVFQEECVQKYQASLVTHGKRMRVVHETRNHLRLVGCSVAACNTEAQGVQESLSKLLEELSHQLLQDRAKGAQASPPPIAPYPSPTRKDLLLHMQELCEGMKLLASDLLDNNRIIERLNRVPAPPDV

[2] = molecular target: Calcium/calmodulin-dependent protein kinase type II subunit alpha (Homo sapiens) (UniProt Q9UQM7); assay: Inhibition of human CAMK2a using KKALRRQETVDAL as substrate at 1 uM in presence of 32P-ATP by Hotspot assay relative to control; values are per cent of control
[3] = molecular target: Protein kinase C gamma type (Homo sapiens) (UniProt P05129); assay: Inhibition of human PKCg using ERMRPRKRQGSVRRRV as substrate at 1 uM in presence of 32P-ATP by Hotspot assay relative to control; values are per cent of control
[4] = molecular target: SRSF protein kinase 3 (Homo sapiens) (UniProt Q9UPE1); assay: Inhibition of human MSSK1/STK23 using GRSRSRSRSR as substrate at 1 uM in presence of 32P-ATP by Hotspot assay relative to control; values are per cent of control
[5] = molecular target: T2, Ephrin type-B receptor 4 (Homo sapiens) (UniProt P54760); assay: Inhibition of human EPHB4 using poly[Glu:Tyr] (4:1) as substrate at 1 uM in presence of 32P-ATP by Hotspot assay relative to control; values are per cent of control
T2 sequence (whole entry): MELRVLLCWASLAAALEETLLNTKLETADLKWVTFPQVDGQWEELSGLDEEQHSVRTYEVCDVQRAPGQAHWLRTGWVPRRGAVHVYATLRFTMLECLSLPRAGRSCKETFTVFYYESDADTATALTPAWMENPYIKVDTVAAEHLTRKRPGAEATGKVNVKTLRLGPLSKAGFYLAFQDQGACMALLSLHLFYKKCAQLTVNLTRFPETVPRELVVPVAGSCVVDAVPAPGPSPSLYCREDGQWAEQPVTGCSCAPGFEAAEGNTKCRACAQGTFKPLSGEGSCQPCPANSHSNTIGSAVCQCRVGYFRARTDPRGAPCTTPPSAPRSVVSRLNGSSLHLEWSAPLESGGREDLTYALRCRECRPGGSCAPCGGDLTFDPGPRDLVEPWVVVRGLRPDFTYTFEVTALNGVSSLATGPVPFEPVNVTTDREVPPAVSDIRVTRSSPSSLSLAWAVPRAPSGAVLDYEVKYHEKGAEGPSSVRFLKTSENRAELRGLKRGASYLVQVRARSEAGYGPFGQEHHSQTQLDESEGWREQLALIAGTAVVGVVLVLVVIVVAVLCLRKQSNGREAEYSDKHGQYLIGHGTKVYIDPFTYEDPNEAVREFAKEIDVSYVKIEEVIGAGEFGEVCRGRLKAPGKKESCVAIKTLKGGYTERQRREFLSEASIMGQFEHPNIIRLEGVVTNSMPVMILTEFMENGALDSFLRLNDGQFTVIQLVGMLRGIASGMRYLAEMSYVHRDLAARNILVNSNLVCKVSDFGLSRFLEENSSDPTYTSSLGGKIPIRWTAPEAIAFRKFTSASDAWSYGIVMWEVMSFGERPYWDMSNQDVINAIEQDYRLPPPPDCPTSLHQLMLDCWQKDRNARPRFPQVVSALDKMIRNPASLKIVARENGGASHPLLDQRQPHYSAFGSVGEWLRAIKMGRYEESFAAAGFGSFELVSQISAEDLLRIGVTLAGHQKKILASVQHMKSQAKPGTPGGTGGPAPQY

[6] = molecular target: T3, Mitogen-activated protein kinase kinase kinase 2 (Homo sapiens) (UniProt Q9Y2U5); assay: Inhibition of human MEKK2 using myelin basic protein as substrate at 1 uM in presence of 32P-ATP by Hotspot assay relative to control; values are per cent of control
T3 sequence (whole entry): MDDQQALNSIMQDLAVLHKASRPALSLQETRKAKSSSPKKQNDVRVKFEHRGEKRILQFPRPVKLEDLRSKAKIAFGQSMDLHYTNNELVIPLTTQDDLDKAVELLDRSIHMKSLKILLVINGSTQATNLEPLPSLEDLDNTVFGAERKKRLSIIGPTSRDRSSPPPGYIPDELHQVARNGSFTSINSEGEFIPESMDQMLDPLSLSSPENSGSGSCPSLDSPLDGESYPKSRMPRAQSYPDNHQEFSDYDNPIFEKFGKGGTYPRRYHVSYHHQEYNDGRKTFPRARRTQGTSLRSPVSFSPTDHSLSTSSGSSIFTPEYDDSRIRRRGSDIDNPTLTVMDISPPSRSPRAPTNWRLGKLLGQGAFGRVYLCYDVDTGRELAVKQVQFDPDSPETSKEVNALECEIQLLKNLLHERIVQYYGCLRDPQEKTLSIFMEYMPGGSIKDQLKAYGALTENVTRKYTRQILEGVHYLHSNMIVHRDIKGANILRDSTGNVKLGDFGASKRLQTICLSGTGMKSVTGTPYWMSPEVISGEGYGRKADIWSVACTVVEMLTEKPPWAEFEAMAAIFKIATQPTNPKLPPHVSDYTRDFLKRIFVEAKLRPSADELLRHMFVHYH

Chain of Calcium/calmodulin-dependent protein kinase type II subunit alpha (Homo sapiens) (Q9UQM7 whole entry): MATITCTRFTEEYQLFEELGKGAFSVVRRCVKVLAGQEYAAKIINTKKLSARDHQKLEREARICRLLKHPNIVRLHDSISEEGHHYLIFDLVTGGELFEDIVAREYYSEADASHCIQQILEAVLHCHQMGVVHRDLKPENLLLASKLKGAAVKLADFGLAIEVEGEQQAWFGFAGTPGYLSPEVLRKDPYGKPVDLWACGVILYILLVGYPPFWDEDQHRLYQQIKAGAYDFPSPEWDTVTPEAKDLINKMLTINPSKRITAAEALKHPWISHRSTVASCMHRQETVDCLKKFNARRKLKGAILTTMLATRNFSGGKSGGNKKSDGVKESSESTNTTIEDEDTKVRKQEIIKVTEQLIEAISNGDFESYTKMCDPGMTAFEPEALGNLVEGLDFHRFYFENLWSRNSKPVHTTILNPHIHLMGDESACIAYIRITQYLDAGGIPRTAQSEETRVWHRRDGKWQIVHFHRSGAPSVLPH
Chain of SRSF protein kinase 3 (Homo sapiens) (Q9UPE1 whole entry): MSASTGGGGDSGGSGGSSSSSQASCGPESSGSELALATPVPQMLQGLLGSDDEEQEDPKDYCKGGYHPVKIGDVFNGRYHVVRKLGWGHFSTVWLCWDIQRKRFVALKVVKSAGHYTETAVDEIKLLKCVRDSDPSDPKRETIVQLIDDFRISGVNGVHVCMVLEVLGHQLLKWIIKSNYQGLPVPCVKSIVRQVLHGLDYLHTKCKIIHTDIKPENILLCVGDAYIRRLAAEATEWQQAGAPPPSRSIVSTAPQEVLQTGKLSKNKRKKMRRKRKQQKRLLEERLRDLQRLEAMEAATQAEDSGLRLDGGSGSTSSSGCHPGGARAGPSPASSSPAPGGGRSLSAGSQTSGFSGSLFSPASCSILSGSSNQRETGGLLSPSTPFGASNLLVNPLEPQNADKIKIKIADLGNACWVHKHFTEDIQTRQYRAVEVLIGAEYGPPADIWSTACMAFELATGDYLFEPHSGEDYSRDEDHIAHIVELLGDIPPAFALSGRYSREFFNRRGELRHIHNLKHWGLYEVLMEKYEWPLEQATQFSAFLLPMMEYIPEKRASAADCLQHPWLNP

Row | SMILES | residual activity [1] [%] | residual activity [2] [%] | residual activity [3] [%] | residual activity [4] [%] | residual activity [5] [%] | residual activity [6] [%]
1 | Cc1cc(-c2cnc(N)c3c(-c4ccc5scnc5c4)csc23)n(C)n1 | 97.9 | 104 | 86.6 | 93.7 | 56.3 | 106
2 | CC(C)S(=O)(=O)c1ccc2nccc(Nc3ccc4scnc4c3)c2c1 | 97.7 | 100 | 99.4 | 102 | 60.2 | 92.2
3 | CNC(=O)c1ccc2c(c1)ncn2-c1ccc(CC(=O)OC(C)(C)C)cc1 | 100 | 94.7 | 85.7 | 101 | 89.7 | 100

— ChEMBL document CHEMBL5649166, “RIP3 induces apoptosis independent of pronecrotic kinase activity” (Mol Cell, 2014)
